22 compounds from article PMC10223019, “Preclinical Evaluation of a PSMA-Targeting Homodimer with an Optimized Linker for Imaging of Prostate Cancer” (Molecules, 2023) can be followed below.

Several values for one entry are separate records, joined by “and”; a condition that tells them apart may be missing. Identical values can stand only once.

Data set [1] has as its target T1, Recombinant human PSMA (rhPSMA) (Homo sapiens, UniProt Q04609).
T1 construct: purchased R&D systems, Abingdon, UK
Nature of the data set: NAALADase assay (competitive inhibition, Amplex Red glutamate readout). As to conditions: for IC50: rhPSMA, substrate Ac-Asp-Glu, 1 h 37 °C. It counts as biochemical. How it is done: Recombinant human PSMA (rhPSMA; R&D systems, Abingdon, UK) was diluted in assay buffer (50 mM HEPES, 0.1 M NaCl, pH 7.5) to 0.4 μg/mL. The substrate Ac–Asp–Glu (40 μM) was mixed with the synthesized derivatives and with a reference (PSMA-617) at concentrations ranging from 10^−6 to 10^−13 M in a final volume of 12.5 μL assay buffer. The mixtures were combined with 12.5 μL of the rhPSMA solution and incubated for 1 h at 37 °C in 384-well black polystyrene microplates (ThermoFisher, Bleiswijk, The Netherlands). The amount of glutamate released was measured by incubating with 25 μL of a working solution of the Amplex Red glutamic acid kit (ThermoFisher, Bleiswijk, The Netherlands) at 37 °C for 30 min. Fluorescence was measured with a HIDEX Sense Optical System (Goedereede, The Netherlands) with excitation at 535 nm and emission at 590 nm. Data were normalized and analyzed using a one-site total binding regression with GraphPad Prism v9.0 (GraphPad Software, San Diego, CA, USA).

Data set [2] concerns BALB/c nude mice bearing LS174T PSMA-positive tumor xenografts. Description: Ex vivo biodistribution studies. The settings on record: 24 h p.i. The class given is in vivo. The protocol: Animal experiments were performed in 8–10 weeks old male BALB/c nude mice (Janvier Labs, Le Genest-Saint-Isle, France). Animals were housed in individually ventilated cages (Blue line IVC, 4 mice per cage) under nonsterile standard conditions with cage enrichment present and free access to chlorophyll-free animal chow (Sniff GmbH, Soest, Germany) and water and acclimated for 1 week before experiments. Mice were subcutaneously inoculated with 4.0 × 10^6 LS174T cells in the right flank, diluted in 100 μL of cell suspension. Seven days after tumor cell inoculation, when xenografts were approximately 0.2–0.3 cm^3, the tracers were injected intravenously via the tail vein. All experiments were approved by the institutional Animal Welfare Committee and were conducted in accordance with the guidelines of the Revised Dutch Act on Animal Experimentation (WOD).
Mice were intravenously injected with ~1 nmol of either [^111In]In-PSMA-617, [^111In]In-22 or [^111In]In-30 with molar activity of 5 MBq/nmol for ex vivo biodistribution studies. Mice (n = 4/timepoint) were euthanized by cervical dislocation at 1, 4, and 24 h p.i. A block group was included, and mice were euthanized at 4 h p.i. Organs were collected in tubes and counted in the gamma counter, where the calibration factor was determined by measuring different known activities of indium-111.

Data set [3] deals with PSMA expressing LS174T cells. Description: Internalization and cell uptake assay. The class given is cell-based, human. As to conditions: 2 h 37 °C. How it is done: LS174T human colon carcinoma cells transfected with human PSMA were obtained from Dr. Sandra Heskamp (Radboud UMC, Nijmegen). Cells were cultured in RPMI-1640 media supplemented with 2 mM glutamine, 10% fetal bovine serum (FBS) and 0.3 mg/mL G418 (Geneticin, Sigma Aldrich, St. Louis, MO, USA).
Cells were seeded (1.2 × 10^6 cells/well) and cultured to confluency for 24 h prior to experiments. We prepared 10^−9 M solutions of [^111In]In-PSMA-617, [^111In]In-22, and [^111In]In-30 in internalization media (RPMI, 20 mM HEPES, 1% BSA, pH 7.4). The media were removed from each well, and they were rinsed twice with PBS at rt. 2 mL of the radioactive compound was then added to each well and incubated at 37 °C for 2 h. For the internalization assay, the media containing radioactive compound were removed, and each well was washed twice with cold PBS. A total of 1 mL of Glycine buffer (50 mM glycine, 100 mM NaCl, pH 2.8) was added immediately and incubated for 10 min at rt. The glycine wash was then collected into counting tubes (membrane-bound fraction). An extra wash was performed and collected in the same tubes. A total of 1 mL of NaOH (1 M) was then added to each tube and left for 15 min at rt. The lysate (internalized fraction) was then collected in separate counting tubes, together with one extra NaOH wash. Data were normalized to 1,000,000 cells and percentage added dose.

The nature of data set [4]: Stability in phosphate-buffered saline (PBS), radio-HPLC. As to conditions: 24 h post-incubation, 37 °C, indium-111 labeled, intact fraction. It counts as physicochemical. The protocol:
[^111In]In-22 or [^111In]In-30 (~10 MBq, 20 µL) was mixed with 80 μL of PBS (0.01 M, pH 7.4) and incubated at 37 °C for up to 24 h. A sample of the PBS solution was loaded directly onto the radio-HPLC at 1, 4, and 24 h post-incubation.

Data set [5] in a line: Stability in mouse serum, radio-HPLC. The class given is in vitro ADME. The settings on record: 24 h post-incubation, 37 °C, indium-111 labeled, intact fraction. How it is done: [^111In]In-22 or [^111In]In-30 (~35 MBq, 70 µL) was mixed with 330 μL of mouse serum and incubated at 37 °C for up to 24 h. After 1, 4, and 24 h incubation, 50 μL of the mouse serum solution was added to a separate vial containing 50 µL of acetonitrile. The sample was centrifuged at 5000× g for 20 min. The supernatant was analyzed by radio-HPLC.

Data set [6] in a line: LogD7.4 by shake-flask method (PBS/n-octanol). It counts as physicochemical. As to conditions: PBS/n-octanol (1:1 v/v); LogD7.4, PBS pH 7.4/n-octanol, indium-111 labeled compound; read-out: LogD. The protocol:
The distribution coefficients (LogD7.4 values) were determined by a shake-flask method, in which 2 μL (~0.5 MBq) of the labeling solution ([^111In]In-22 or [^111In]In-30) were added to an Eppendorf tube containing 1 mL of PBS (0.01 M, pH 7.4)/n-octanol (v/v, 1:1). After vigorous vortexing, the solution was centrifuged at 2500× g for 15 min for phase separation. Samples (3 × 10 μL) of the two phases were taken out and measured in a gamma counter. LogD7.4 values were calculated by using the following equation: LogD7.4 = log [(counts in octanol phase)/(counts in aqueous phase)] and the experiment was performed in triplicate.

T1 sequence (Q04609 whole entry): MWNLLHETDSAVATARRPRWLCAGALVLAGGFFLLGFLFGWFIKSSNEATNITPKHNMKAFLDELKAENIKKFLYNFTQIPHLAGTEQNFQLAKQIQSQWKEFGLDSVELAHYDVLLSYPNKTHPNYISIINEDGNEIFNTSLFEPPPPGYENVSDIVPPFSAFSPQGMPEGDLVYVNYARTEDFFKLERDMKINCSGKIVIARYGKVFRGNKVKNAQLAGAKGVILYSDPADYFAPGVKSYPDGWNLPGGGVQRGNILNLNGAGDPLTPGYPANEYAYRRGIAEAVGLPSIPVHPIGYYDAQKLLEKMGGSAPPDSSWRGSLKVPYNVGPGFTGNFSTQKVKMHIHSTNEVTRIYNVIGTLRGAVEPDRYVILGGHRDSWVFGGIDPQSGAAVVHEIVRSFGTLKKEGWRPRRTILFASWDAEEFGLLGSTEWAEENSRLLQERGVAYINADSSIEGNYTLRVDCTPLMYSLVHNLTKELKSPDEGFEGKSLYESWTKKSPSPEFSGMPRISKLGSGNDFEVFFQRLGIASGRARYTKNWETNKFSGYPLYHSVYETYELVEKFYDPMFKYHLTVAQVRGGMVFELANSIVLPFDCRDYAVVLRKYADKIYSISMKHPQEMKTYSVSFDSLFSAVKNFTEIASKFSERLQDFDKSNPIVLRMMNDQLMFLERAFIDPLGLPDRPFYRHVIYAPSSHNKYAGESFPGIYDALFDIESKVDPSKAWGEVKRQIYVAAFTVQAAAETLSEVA

As a reminder, the IC50 is the concentration that gives 50% inhibition. For the compound `CC(C)C[C@H](NC(=O)[C@H](Cc1ccccc1)NC(=O)[C@@H](N)Cc1ccccc1)[C@@H](O)CC(=O)NCCCCCC(=O)NCCCC[C@H](NC(=O)N[C@@H](CCC(=O)O)C(=O)O)C(=O)O` [Compound 18], the IC50 in data set [1] came to 3.33 ± 0.4 nM.
As for `O=C(O)CC[C@H](NC(=O)N[C@@H](CCCCNC(=O)[C@H](Cc1ccc2ccccc2c1)NC(=O)[C@H]1CC[C@H](CNC(=O)CN2CCN(CC(=O)O)CCN(CC(=O)O)CCN(CC(=O)O)CC2)CC1)C(=O)O)C(=O)O` [PSMA-617, reference compound], in data set [2], the “Tumor-to-muscle (T/M) ratio” value came to 26. In addition, the half-inhibitory concentration (IC50) in data set [1] worked out at 0.9 ± 0.3 nM. Also, the “Internalized fraction as share of total uptake (internalization)” value in data set [3] is on record as 34.1%.
Turning to `N[C@@H](Cc1ccccc1)C(=O)NCCCCCC(=O)NCCCC[C@H](NC(=O)N[C@@H](CCC(=O)O)C(=O)O)C(=O)O` [Compound 6], in data set [1], the IC50 was found to be 3.17 ± 0.5 nM.
Regarding `NCCCCCC(=O)NCCCCC(NC(=O)NC(CCC(=O)O)C(=O)O)C(=O)O` (centres unmarked) [Compound 1], the IC50 in data set [1] is 9.86 ± 1.7 nM.
Same read-out and setting: in the case of `CC(C)C[C@H](NC(=O)[C@H](Cc1ccccc1)NC(=O)CN1CCN(CC(=O)O)CCN(CC(=O)O)CCN(CC(=O)O)CC1)[C@@H](O)CC(=O)NCCCCCC(=O)NCCCC[C@H](NC(=O)N[C@@H](CCC(=O)O)C(=O)O)C(=O)O` [Compound 14] it was 1.73 ± 0.7 nM; in that of `CC(C)C[C@H](NC(=O)[C@H](Cc1ccccc1)NC(=O)C[C@H](O)[C@@H](N)CC(C)C)[C@@H](O)CC(=O)NCCCCCC(=O)NCCCC[C@H](NC(=O)N[C@@H](CCC(=O)O)C(=O)O)C(=O)O` [Compound 19], 1.22 ± 0.3 nM.
As for `NCCC(=O)N[C@@H](Cc1ccccc1)C(=O)NCCCCCC(=O)NCCCC[C@H](NC(=O)N[C@@H](CCC(=O)O)C(=O)O)C(=O)O` [Compound 8], in data set [1], the IC50 stood at 4.53 ± 0.4 nM.
For the compound `NCCC(=O)NCCC(=O)NCCCCCC(=O)NCCCC[C@H](NC(=O)N[C@@H](CCC(=O)O)C(=O)O)C(=O)O` [Compound 3], the IC50 in data set [1] was determined as 20.1 ± 2.7 nM.
Broadly, the logD is the decadic logarithm of the distribution of all forms, ionised or not, between an organic phase and buffer at a given pH. With `CC(C)C[C@H](NC(=O)[C@H](Cc1ccccc1)NC(=O)[C@H](CC(=O)O)NC(=O)CCC(C(=O)O)N1CCN(CC(=O)O)CCN(CC(=O)O)CCN(CC(=O)O)CC1)[C@@H](O)CC(=O)NCCCCCC(=O)NCCCC[C@H](NC(=O)N[C@@H](CCC(=O)O)C(=O)O)C(=O)O` (stereo partly drawn) [Compound 22, EuK(Ahx-Sta-L-Phe-Asp-DOTA-GA)], the “Stability in PBS (%)” value in data set [4] was more than 90%. Also, in data set [1] (comparison in words), the “IC50 of 22 (L-Phe) relative to 23 (D-Phe)” value is “two-fold better”. In addition, the half-inhibitory concentration (IC50) in data set [1] was 1.66 nM and 1 to 1.6 nM. In addition, the “Stability in Mouse Serum (%)” value in data set [5] was more than 90%. For the same compound, in data set [6], the logD is -3.26 ± 0.05.
`CC(C)C[C@H](NC(=O)[C@H](Cc1ccccc1)NC(=O)[C@@H](N)Cc1ccc(O)cc1)[C@@H](O)CC(=O)NCCCCCC(=O)NCCCC[C@H](NC(=O)N[C@@H](CCC(=O)O)C(=O)O)C(=O)O` [Compound 17]: in data set [1], the IC50 came out at 2.62 ± 0.4 nM.
Same read-out and setting: then `NCCC(=O)NCCCCCC(=O)NCCCC[C@H](NC(=O)N[C@@H](CCC(=O)O)C(=O)O)C(=O)O` [Compound 2, EuK(Ahx-Ala)], with 23.1 ± 3.1 nM.
Still for that read-out and setting: then `CC(C)C[C@H](N)[C@@H](O)CC(=O)NCCCCCC(=O)NCCCC[C@H](NC(=O)N[C@@H](CCC(=O)O)C(=O)O)C(=O)O` [Compound 10], with 6.83 ± 0.5 nM; and `N[C@@H](Cc1ccccc1)C(=O)N[C@@H](Cc1ccccc1)C(=O)NCCCCCC(=O)NCCCC[C@H](NC(=O)N[C@@H](CCC(=O)O)C(=O)O)C(=O)O` [Compound 7], with 1.72 ± 0.4 nM; and `CC(C)C[C@H](NC(=O)CCN)[C@@H](O)CC(=O)NCCCCCC(=O)NCCCC[C@H](NC(=O)N[C@@H](CCC(=O)O)C(=O)O)C(=O)O` [Compound 13], with 6.15 ± 0.6 nM.
In the case of `CC(C)C[C@H](NC(=O)[C@@H](Cc1ccccc1)NC(=O)[C@H](CC(=O)O)NC(=O)CCC(C(=O)O)N1CCN(CC(=O)[O-])CCN(CC(=O)[O-])CCN(CC(=O)[O-])CC1)[C@@H](O)CC(=O)NCCCCCC(=O)NCCCC[C@H](NC(=O)N[C@@H](CCC(=O)O)C(=O)O)C(=O)O.[111In+3]` (some centres unmarked) [[^111In]In-23], in data set [4], the “Stability in PBS (%)” value is on record as more than 90%. Further, the “Stability in Mouse Serum (%)” value in data set [5] was more than 90%.
Regarding `CC(C)C[C@H](NC(=O)[C@H](Cc1ccccc1)NC(=O)[C@@H](N)CN)[C@@H](O)CC(=O)NCCCCCC(=O)NCCCC[C@H](NC(=O)N[C@@H](CCC(=O)O)C(=O)O)C(=O)O` [Compound 15], in data set [1], the IC50 worked out at 2.1 ± 0.4 nM.
The same measure, in the same setting: in the case of `CC(C)C[C@H](NC(=O)[C@H](Cc1ccccc1)NC(=O)[C@@H](N)CC(=O)O)[C@@H](O)CC(=O)NCCCCCC(=O)NCCCC[C@H](NC(=O)N[C@@H](CCC(=O)O)C(=O)O)C(=O)O` [Compound 16, EuK(Ahx-Sta-Phe-Asp)] it was 1.03 ± 0.5 nM.
Same read-out and setting: then `CC(C)C[C@H](NC(=O)C[C@H](O)[C@@H](N)CC(C)C)[C@@H](O)CC(=O)NCCCCCC(=O)NCCCC[C@H](NC(=O)N[C@@H](CCC(=O)O)C(=O)O)C(=O)O` [Compound 11], with 6.5 ± 0.4 nM.
Take `N[C@@H](Cc1ccccc1)C(=O)NCCC(=O)NCCCCCC(=O)NCCCC[C@H](NC(=O)N[C@@H](CCC(=O)O)C(=O)O)C(=O)O` [Compound 4]: the IC50 in data set [1] turned out to be 2.86 ± 0.3 nM.
As for `CC(C)C[C@H](NC(=O)[C@@H](Cc1ccccc1)NC(=O)[C@H](CC(=O)O)NC(=O)CCC(C(=O)O)N1CCN(CC(=O)O)CCN(CC(=O)O)CCN(CC(=O)O)CC1)[C@@H](O)CC(=O)NCCCCCC(=O)NCCCC[C@H](NC(=O)N[C@@H](CCC(=O)O)C(=O)O)C(=O)O` (stereo partly drawn) [Compound 23, EuK(Ahx-Sta-D-Phe-Asp-DOTA-GA)], the log distribution coefficient (logD) in data set [6] is -3.21 ± 0.07.
Consider `CC(C)C[C@H](N)[C@@H](O)CC(=O)N[C@@H](Cc1ccccc1)C(=O)NCCCCCC(=O)NCCCC[C@H](NC(=O)N[C@@H](CCC(=O)O)C(=O)O)C(=O)O` [Compound 9], for which, in data set [1], the IC50 is 7 ± 0.3 nM.
As to `CC(C)C[C@H](N)[C@@H](O)CC(=O)NCCC(=O)NCCCCCC(=O)NCCCC[C@H](NC(=O)N[C@@H](CCC(=O)O)C(=O)O)C(=O)O` [Compound 5], in data set [1], the IC50 is 10.1 ± 3.2 nM.
